PubChem BioAssay AID226 (DTP/NCI, 2004)
“And” between values parts separate entries of the source, which are not always exact repeats. Equal values may be shown once. Inconclusive results and toxic doses are left out.

System: B6C3F1 mice, intracerebral ependymoblastoma, median survival T/C
Test: NCI In Vivo Anticancer Drug Screen. Data for tumor model Ependymoblastoma (intracerebral) in B6C3F1 mice
Conditions: endpoint: median survival time, higher = longer survival
Description: The antitumor activity of compounds was measured in mice bearing transplantable tumors. Survival or tumor size were measured and the results are expressed as the measurement made in the treated group (T) divided by the measurement made in the vehicle treated control group (C). The tumor model used in this assay is Ependymoblastoma (intracerebral) in B6C3F1 mice

[1] = dose: 8.0 mg/kg/injection, schedule: Q01DX005 (ip), vehicle: saline
[2] = dose: 16.0 mg/kg/injection, schedule: Q01DX005 (ip), vehicle: saline
[3] = dose: 32.0 mg/kg/injection, schedule: Q01DX005 (ip), vehicle: saline
[4] = dose: 64.0 mg/kg/injection, schedule: Q01DX005 (ip), vehicle: saline
[5] = dose: 8.0 mg/kg/injection, schedule: Q01DX005 (ip), vehicle: saline with Tween-80
[6] = dose: 16.0 mg/kg/injection, schedule: Q01DX005 (ip), vehicle: saline with Tween-80
[7] = dose: 32.0 mg/kg/injection, schedule: Q01DX005 (ip), vehicle: saline with Tween-80
[8] = dose: 64.0 mg/kg/injection, schedule: Q01DX005 (ip), vehicle: saline with Tween-80
[9] = dose: 128.0 mg/kg/injection, schedule: Q01DX005 (ip), vehicle: saline

## Nc1ncn(C2OC(CO)C(O)C2O)c(=O)n1 (centres undefined)
dose: 0.59 mg/kg/injection, schedule: Q03HX024 (ip), vehicle: saline
  T/C: 111 % of control
dose: 0.75 mg/kg/injection, schedule: Q01DX005 (ip), vehicle: saline
  T/C: 116 % of control
dose: 1.17 mg/kg/injection, schedule: Q03HX024 (ip), vehicle: saline
  T/C: 109 % of control
dose: 1.5 mg/kg/injection, schedule: Q01DX005 (ip), vehicle: saline
  T/C: 109 % of control
dose: 2.34 mg/kg/injection, schedule: Q03HX024 (ip), vehicle: saline
  T/C: 116 % of control
dose: 3.0 mg/kg/injection, schedule: Q01DX005 (ip), vehicle: saline
  T/C: 116 % of control
dose: 9.38 mg/kg/injection, schedule: Q03HX024 (ip), vehicle: saline
  T/C: 154 % of control

## CN=NNc1nc[nH]c1C(N)=O
[1]
  T/C: 99 % of control
[2]
  T/C: 106 % of control
[3]
  T/C: 110 % of control
[4]
  T/C: 123 % of control

## CN1c2c(nc(N)[nH]c2=O)NCC1CCNc1ccc(C(=O)NC(CCC(=O)O)C(=O)O)cc1 (centres undefined)
dose: 50.0 mg/kg/injection, schedule: Q#ADX018 (ip), vehicle: saline
  T/C: 114 % of control
dose: 100.0 mg/kg/injection, schedule: Q01DX009 (ip), vehicle: saline
  T/C: 111 % of control and 114 % of control
dose: 100.0 mg/kg/injection, schedule: Q12HX018 (ip), vehicle: saline
  T/C: 122 % of control
dose: 100.0 mg/kg/injection, schedule: Q#A X018 (ip), vehicle: saline
  T/C: 195 % of control
dose: 100.0 mg/kg/injection, schedule: Q#ADX018 (ip), vehicle: saline
  T/C: 114 % of control
dose: 200.0 mg/kg/injection, schedule: Q01DX009 (ip), vehicle: saline
  T/C: 105 % of control and 115 % of control
dose: 200.0 mg/kg/injection, schedule: Q#A X018 (ip), vehicle: saline
  T/C: 216 % of control
dose: 200.0 mg/kg/injection, schedule: Q#ADX018 (ip), vehicle: saline
  T/C: 119 % of control
dose: 400.0 mg/kg/injection, schedule: Q01DX009 (ip), vehicle: saline
  T/C: 109 % of control
dose: 400.0 mg/kg/injection, schedule: Q#A X018 (ip), vehicle: saline
  T/C: 190 % of control
dose: 800.0 mg/kg/injection, schedule: Q01DX009 (ip), vehicle: saline
  T/C: 121 % of control and 122 % of control
dose: 1600.0 mg/kg/injection, schedule: Q01DX009 (ip), vehicle: saline
  T/C: 120 % of control

## O=c1[nH]c(=O)n([C@H]2CCCO2)cc1F
[5]
  T/C: 98 % of control and 100 % of control
[1]
  T/C: 92 % of control
[6]
  T/C: 93 % of control and 104 % of control
[2]
  T/C: 91 % of control
[7]
  T/C: 106 % of control and 109 % of control
[3]
  T/C: 92 % of control and 96 % of control
[8]
  T/C: 104 % of control and 105 % of control
[4]
  T/C: 93 % of control and 103 % of control
dose: 128.0 mg/kg/injection, schedule: Q01DX005 (ip), vehicle: saline with Tween-80
  T/C: 100 % of control and 119 % of control
[9]
  T/C: 93 % of control and 110 % of control
dose: 256.0 mg/kg/injection, schedule: Q01DX005 (ip), vehicle: saline with Tween-80
  T/C: 124 % of control

## ClC(Cl)=C(Cl)Cl
dose: 25.0 mg/kg/injection, schedule: Q01DX005 (ip), vehicle: other
  T/C: 110 % of control and 122 % of control
dose: 50.0 mg/kg/injection, schedule: Q01DX005 (ip), vehicle: other
  T/C: 100 % of control and 113 % of control
dose: 100.0 mg/kg/injection, schedule: Q01DX005 (ip), vehicle: other
  T/C: 101 % of control and 105 % of control
dose: 200.0 mg/kg/injection, schedule: Q01DX005 (ip), vehicle: other
  T/C: 93 % of control and 97 % of control

## COc1cc2cc3c4cc(OC)c(OC)cc4cc[n+]3c(C)c2cc1OC (tested in a mixture with another compound)
[2]
  T/C: 94 % of control and 98 % of control and 111 % of control
[3]
  T/C: 100 % of control (2×) and 120 % of control
[4]
  T/C: 102 % of control and 105 % of control and 118 % of control
[9]
  T/C: 104 % of control and 109 % of control
dose: 256.0 mg/kg/injection, schedule: Q01DX005 (ip), vehicle: saline
  T/C: 106 % of control

## O=P1(NCCCl)OCCC(OO)N1CCCl (centres undefined)
dose: 40.0 mg/kg/injection, schedule: Q01DX001 (ip), vehicle: Klucel (hydroxypropylcellulose) (HPC)
  T/C: 106 % of control and 119 % of control
dose: 80.0 mg/kg/injection, schedule: Q01DX001 (ip), vehicle: Klucel (hydroxypropylcellulose) (HPC)
  T/C: 115 % of control
dose: 240.0 mg/kg/injection, schedule: Q01DX001 (ip), vehicle: Klucel (hydroxypropylcellulose) (HPC)
  T/C: 150 % of control

## Cc1cnc(/C=N\NC(N)=S)c2cccc(N)c12
dose: 12.5 mg/kg/injection, schedule: Q01DX005 (ip), vehicle: saline with Tween-80
  T/C: 100 % of control
dose: 25.0 mg/kg/injection, schedule: Q01DX005 (ip), vehicle: saline with Tween-80
  T/C: 103 % of control
dose: 50.0 mg/kg/injection, schedule: Q01DX005 (ip), vehicle: saline with Tween-80
  T/C: 104 % of control
dose: 100.0 mg/kg/injection, schedule: Q01DX005 (ip), vehicle: saline with Tween-80
  T/C: 102 % of control

## Nc1nc(=S)c2ncn(C3CC(O)C(CO)O3)c2[nH]1 (centres undefined)
dose: 4.0 mg/kg/injection, schedule: Q01DX005 (ip), vehicle: saline with Tween-80
  T/C: 93 % of control and 96 % of control
[5]
  T/C: 103 % of control
[6]
  T/C: 92 % of control
[7]
  T/C: 91 % of control and 102 % of control
[8]
  T/C: 100 % of control and 90 % of control

## O=C1C(NCC(O)CO)=C(N2CC2)C(=O)C(NCC(O)CO)=C1N1CC1 (centres undefined)
dose: 0.5 mg/kg/injection, schedule: Q01DX005 (ip), vehicle: saline
  T/C: 117 % of control
dose: 1.0 mg/kg/injection, schedule: Q01DX005 (ip), vehicle: saline
  T/C: 116 % of control

## O=C(NCCCl)NCCCl
dose: 6.25 mg/kg/injection, schedule: Q01DX005 (ip), vehicle: Klucel (hydroxypropylcellulose) (HPC)
  T/C: 102 % of control and 105 % of control
dose: 12.5 mg/kg/injection, schedule: Q01DX005 (ip), vehicle: Klucel (hydroxypropylcellulose) (HPC)
  T/C: 102 % of control and 104 % of control
dose: 25.0 mg/kg/injection, schedule: Q01DX005 (ip), vehicle: Klucel (hydroxypropylcellulose) (HPC)
  T/C: 93 % of control and 99 % of control
dose: 50.0 mg/kg/injection, schedule: Q01DX005 (ip), vehicle: Klucel (hydroxypropylcellulose) (HPC)
  T/C: 92 % of control and 103 % of control
dose: 100.0 mg/kg/injection, schedule: Q01DX005 (ip), vehicle: Klucel (hydroxypropylcellulose) (HPC)
  T/C: 98 % of control and 107 % of control
dose: 200.0 mg/kg/injection, schedule: Q01DX005 (ip), vehicle: Klucel (hydroxypropylcellulose) (HPC)
  T/C: 96 % of control and 107 % of control
dose: 400.0 mg/kg/injection, schedule: Q01DX005 (ip), vehicle: Klucel (hydroxypropylcellulose) (HPC)
  T/C: 108 % of control and 87 % of control

## CS(C)=O
dose: 500.0 mg/kg/injection, schedule: Q01DX005 (ip), vehicle: water
  T/C: 103 % of control
dose: 1000.0 mg/kg/injection, schedule: Q01DX005 (ip), vehicle: saline
  T/C: 98 % of control
dose: 1000.0 mg/kg/injection, schedule: Q01DX005 (ip), vehicle: water
  T/C: 97 % of control
dose: 2000.0 mg/kg/injection, schedule: Q01DX001 (ip), vehicle: saline
  T/C: 96 % of control and 98 % of control and 100 % of control
dose: 2000.0 mg/kg/injection, schedule: Q01DX005 (ip), vehicle: saline
  T/C: 109 % of control
dose: 2000.0 mg/kg/injection, schedule: Q01DX005 (ip), vehicle: water
  T/C: 103 % of control
dose: 2.0 grams/kg/injection, schedule: Q01DX001 (ip), vehicle: saline
  T/C: 102 % of control
dose: 4000.0 mg/kg/injection, schedule: Q01DX001 (ip), vehicle: saline
  T/C: 91 % of control and 95 % of control and 103 % of control
dose: 4000.0 mg/kg/injection, schedule: Q01DX005 (ip), vehicle: saline
  T/C: 103 % of control
dose: 4000.0 mg/kg/injection, schedule: Q01DX005 (ip), vehicle: water
  T/C: 105 % of control
dose: 4.0 grams/kg/injection, schedule: Q01DX001 (ip), vehicle: saline
  T/C: 95 % of control
dose: 8000.0 mg/kg/injection, schedule: Q01DX001 (ip), vehicle: saline
  T/C: 101 % of control (2×) and 107 % of control
dose: 8000.0 mg/kg/injection, schedule: Q01DX005 (ip), vehicle: saline
  T/C: 103 % of control
dose: 8000.0 mg/kg/injection, schedule: Q01DX005 (ip), vehicle: water
  T/C: 98 % of control
dose: 8.0 grams/kg/injection, schedule: Q01DX001 (ip), vehicle: saline
  T/C: 99 % of control
dose: 16000.0 mg/kg/injection, schedule: Q01DX001 (ip), vehicle: saline
  T/C: 93 % of control

## CN(C)CC(=O)c1ccc(O)c(O)c1
dose: 100.0 mg/kg/injection, schedule: Q01DX005 (ip), vehicle: saline
  T/C: 100 % of control
dose: 200.0 mg/kg/injection, schedule: Q01DX005 (ip), vehicle: saline
  T/C: 94 % of control
dose: 400.0 mg/kg/injection, schedule: Q01DX005 (ip), vehicle: saline
  T/C: 106 % of control
dose: 800.0 mg/kg/injection, schedule: Q01DX005 (ip), vehicle: saline
  T/C: 108 % of control
